Measurements published in patent US6440903B1, “Substituted 2,4-diamino-1,3,5-triazines as herbicides” (Bayer Aktiengesellschaft, priority 1996, dated 2002).

Legend:
Assay type in all cases: in vivo
[1] = test system: Amaranthus; test: Pre-emergence test; conditions: greenhouse, 1000 g of ai./ha, scored after three weeks
Procedure: (§1) Pre-emergence Test Solvent: 5 parts by weight of acetone Emulsifier: 1 part by weight of alkylaryl polyglycol ether To produce a suitable preparation of active compound, 1 part by weight of active compound is mixed with the stated amount of solvent, the stated amount of emulsifier is added and the concentrate is diluted with water to the desired concentration. Seeds of the test plants are sown in normal soil. After about 24 hours, the soil is watered with the preparation of active compound. The amount of water per unit area is advantageously kept constant. The concentration of active compound in the preparation is immaterial, only the application rate of active compound per unit area matters. After three weeks, the degree of damage to the plants is scored visually in % damage in comparison to the development of the untreated control. The figures denote: 0%=no effect (like untreated control) 100%=total destruction

[2] = test system: Digitaria; test: Pre-emergence test; conditions: greenhouse, scored after three weeks
Procedure: as §1

[3] = test system: Wheat; test: Pre-emergence test; conditions: greenhouse, scored after three weeks
Procedure: as §1

[4] = test system: Polygonum; test: Pre-emergence test; conditions: greenhouse, scored after three weeks
Procedure: as §1

[5] = test system: Solanum; test: Pre-emergence test; conditions: greenhouse, scored after three weeks
Procedure: as §1

[6] = test system: Veronica; test: Pre-emergence test; conditions: greenhouse, scored after three weeks
Procedure: as §1

[7] = test system: Setaria; test: Pre-emergence test; conditions: greenhouse, scored after three weeks
Procedure: as §1

[8] = test system: Echinochloa; test: Pre-emergence test; conditions: greenhouse, scored after three weeks
Procedure: as §1

[9] = test system: Cotton; test: Pre-emergence test; conditions: greenhouse, 500 g of ai./ha, scored after three weeks
Procedure: as §1

[10] = test system: Amaranthus; test: Post-emergence test; conditions: greenhouse, 1000 g of ai./ha, scored after three weeks; for pest or weed control at 1000 g/ha: Amaranthus, 504 h, read-out: % damage, Amaranthus
Procedure: (§2) Post-emergence Test Solvent: 5 parts by weight of acetone Emulsifier: 1 part by weight of alkylaryl polyglycol ether To produce a suitable preparation of active compound, 1 part by weight of active compound is mixed with the stated amount of solvent, the stated amount of emulsifier is added and the concentrate is diluted with water to the desired concentration. Test plants which have a height of 5-15 cm are sprayed with the preparation of active compound such that the particular amounts of active compounds desired are applied per unit area. The concentration of the spray liquor is chosen so that the particular amounts of active compound desired are applied in 1000 l of water/ha. After three weeks, the degree of damage to the plants is scored visually in % damage in comparison to the untreated control. The Figures Denote: 0%=no effect (like untreated control) 100%=total destruction

[11] = test system: Alopecurus; test: Post-emergence test; conditions: greenhouse, 1000 g of ai./ha, scored after three weeks
Procedure: as §2

[12] = test system: Sinapis; test: Post-emergence test; conditions: greenhouse, 1000 g of ai./ha, scored after three weeks
Procedure: as §2

[13] = test system: Abutilon; test: Post-emergence test; conditions: greenhouse, 1000 g of ai./ha, scored after three weeks
Procedure: as §2

[14] = test system: Setaria; test: Post-emergence test; conditions: greenhouse, 1000 g of ai./ha, scored after three weeks; for pest or weed control at 1000 g/ha: Setaria, 504 h, read-out: % damage, Setaria
Procedure: as §2

[15] = test system: Avena fatua; test: Post-emergence test; conditions: greenhouse, 1000 g of ai./ha, scored after three weeks
Procedure: as §2

[16] = test system: Xanthium; test: Post-emergence test; conditions: greenhouse, 1000 g of ai./ha, scored after three weeks
Procedure: as §2

[17] = test system: Maize; test: Post-emergence test; conditions: greenhouse, 1000 g of ai./ha, scored after three weeks
Procedure: as §2

[18] = test system: weeds; test: Post-emergence test (summary in text); conditions: result in words
Procedure: (§3) Solvent: 5 parts by weight of acetone
(§4) Emulsifier: 1 part by weight of alkylaryl polyglycol ether
(§5) To produce a suitable preparation of active compound, 1 part by weight of active compound is mixed with the stated amount of solvent, the stated amount of emulsifier is added and the concentrate is diluted with water to the desired concentration.
Test plants which have a height of 5-15 cm are sprayed with the preparation of active compound such that the particular amounts of active compounds desired are applied per unit area. The concentration of the spray liquor is chosen so that the particular amounts of active compound desired are applied in 1000 l of water/ha.
After three weeks, the degree of damage to the plants is scored visually in % damage in comparison to the untreated control.
(§6) 0%=no effect (like untreated control)

[19] = test system: weeds; test: Pre-emergence test (summary in text); conditions: result in words
Procedure: as §3, §4, §5
Seeds of the test plants are sown in normal soil. After about 24 hours, the soil is watered with the preparation of active compound. The amount of water per unit area is advantageously kept constant. The concentration of active compound in the preparation is immaterial, only the application rate of active compound per unit area matters.
After three weeks, the degree of damage to the plants is scored visually in % damage in comparison to the development of the untreated control.
as §6

[20] = test system: Sinapis; test: Pre-emergence test; conditions: greenhouse, 1000 g of ai./ha, scored after three weeks
Procedure: as §1

[21] = test system: Abutilon; test: Pre-emergence test; conditions: greenhouse, 1000 g of ai./ha, scored after three weeks
Procedure: as §1

[22] = test system: Maize; test: Pre-emergence test; conditions: greenhouse, 1000 g of ai./ha, scored after three weeks
Procedure: as §1

CC(=O)Nc1nc(NC(C)c2ccc(Cl)cc2)nc(C(C)(Cl)Cl)n1 (stereo not drawn) [drawing 103]
% damage, Amaranthus [1]: 100%
% damage, Digitaria ([2]; 1000 g of ai./ha): 100%
% damage, Wheat ([3]; 1000 g of ai./ha): 0%
% damage, Polygonum ([4]; 1000 g of ai./ha): 100%
% damage, Solanum ([5]; 1000 g of ai./ha): 100%
% damage, Veronica ([6]; 1000 g of ai./ha): 100%
% damage, Setaria ([7]; 1000 g of ai./ha): 95%
% damage, Echinochloa ([8]; 1000 g of ai./ha): 100%

CC(Cl)c1nc(N)nc(NC(C)c2ccc(Cl)cc2)n1 (stereo not drawn) [drawing 100]
% damage, Cotton [9]: 0%
% damage, Wheat ([3]; 500 g of ai./ha): 0%
% damage, Polygonum ([4]; 500 g of ai./ha): 100%
% damage, Solanum ([5]; 500 g of ai./ha): 100%
% damage, Veronica ([6]; 500 g of ai./ha): 100%
% damage, Setaria ([7]; 500 g of ai./ha): 95%
% damage, Echinochloa ([8]; 500 g of ai./ha): 100%

CC(Nc1nc(N)nc(Cl)n1)c1ccc(Cl)cc1 (stereo not drawn) [drawing 108]
% damage, Amaranthus [10]: 100%
% damage, Alopecurus [11]: 70%
% damage, Sinapis [12]: 100%
% damage, Abutilon [13]: 100%
% damage, Setaria [14]: 100%
% damage, Avena fatua [15]: 80%

CCC(Nc1nc(NC(C)=O)nc(C(F)(F)F)n1)c1ccc(Cl)cc1 (stereo not drawn) [drawing 144]
pest or weed control at 1000 g/ha [10]: 100%
% damage, Xanthium [16]: 90%
% damage, Abutilon [13]: 100%
% damage, Maize [17]: 10%
pest or weed control at 1000 g/ha [14]: 100%

CC(=O)Nc1nc(NC(C)c2ccc(Cl)cc2)nc(C(F)C(F)(F)F)n1 (stereo not drawn) [drawing 102]
% damage, Amaranthus [1]: 100%
% damage, Digitaria ([2]; 1000 g of ai./ha): 100%
% damage, Wheat ([3]; 1000 g of ai./ha): 0%
% damage, Polygonum ([4]; 1000 g of ai./ha): 100%
% damage, Solanum ([5]; 1000 g of ai./ha): 100%
% damage, Veronica ([6]; 1000 g of ai./ha): 100%
% damage, Setaria ([7]; 1000 g of ai./ha): 100%
% damage, Echinochloa ([8]; 1000 g of ai./ha): 100%

CC(F)c1nc(N)nc(NC(C)c2ccc(Cl)cc2)n1 (stereo not drawn) [Example 13]
activity against weeds [18]: strong activity
activity against weeds [19]: strong activity

CC(Nc1nc(N)nc(C(C)(C)F)n1)c1ccc(Cl)cc1 (stereo not drawn) [drawing 110]
pest or weed control at 1000 g/ha [10]: 100%
% damage, Alopecurus [11]: 90%
% damage, Sinapis [12]: 100%
% damage, Abutilon [13]: 100%
pest or weed control at 1000 g/ha [14]: 100%
% damage, Avena fatua [15]: 95%

CC(Nc1nc(N)nc(C(Cl)Cl)n1)c1ccc(Cl)cc1 (stereo not drawn) [drawing 98]
% damage, Cotton [9]: 0%
% damage, Digitaria ([2]; 500 g of ai./ha): 95%
% damage, Wheat ([3]; 500 g of ai./ha): 0%
% damage, Polygonum ([4]; 500 g of ai./ha): 100%
% damage, Solanum ([5]; 500 g of ai./ha): 100%
% damage, Veronica ([6]; 500 g of ai./ha): 100%
% damage, Echinochloa ([8]; 500 g of ai./ha): 100%

CC(Nc1nc(N)nc(C(F)C(F)(F)F)n1)c1ccc(Cl)cc1 (stereo not drawn) [drawing 101]
% damage, Amaranthus [1]: 100%
% damage, Digitaria ([2]; 1000 g of ai./ha): 100%
% damage, Wheat ([3]; 1000 g of ai./ha): 0%
% damage, Polygonum ([4]; 1000 g of ai./ha): 100%
% damage, Solanum ([5]; 1000 g of ai./ha): 100%
% damage, Veronica ([6]; 1000 g of ai./ha): 100%
% damage, Setaria ([7]; 1000 g of ai./ha): 100%
% damage, Echinochloa ([8]; 1000 g of ai./ha): 100%

CC(Nc1nc(N)nc(C(C)(C)F)n1)c1ccc(Cl)cc1 (stereo not drawn) [drawing 95]
% damage, Amaranthus [1]: 90%
% damage, Sinapis [20]: 100%
% damage, Abutilon [21]: 80%
% damage, Maize [22]: 0%

CC(F)c1nc(N)nc(NC(C)c2ccc(Cl)cc2)n1 (stereo not drawn) [drawing 94]
% damage, Amaranthus [1]: 100%
% damage, Sinapis [20]: 100%
% damage, Abutilon [21]: 100%
% damage, Maize [22]: 0%

COCc1nc(NC(C)=O)nc(NC(C)c2ccc(SC)cc2)n1 (stereo not drawn) [drawing 143]
pest or weed control at 1000 g/ha [10]: 100%
% damage, Sinapis [12]: 100%
% damage, Maize [17]: 0%
pest or weed control at 1000 g/ha [14]: 100%
